This note sets out measurements from patent US9458137B2, “Substituted indol-5-ol derivatives and their therapeutical applications” (NantBioScience, Inc., priority 2012, dated 2016).

The test system of the test is abl kinase. The test is described as follows: abl kinase inhibition assay. The test is classed as biochemical.
For `Cc1cc2c(F)c(Oc3nc(Nc4cc(C5CC5)[nH]n4)cc(N4CCN(CCN(C)C)CC4)n3)ccc2[nH]1` [Example 42], the “% Inhibition @1 μM Abl” value is listed as 110%.
For `Cc1cc2c(F)c(Oc3nc(Nc4cc(C5CC5)[nH]n4)cc(N4CCN(S(C)(=O)=O)CC4)n3)ccc2[nH]1` [Example 23] the value was 108%; for `Cc1cc2c(F)c(Oc3nc(Nc4cc(C5CC5)[nH]n4)cc(N4CCC(O)CC4)n3)ccc2[nH]1` [Example 21], 107%; for `C/C=C/c1cc(Nc2cc(N3CCC(OC)CC3)nc(Oc3cc(F)c4[nH]c(C)cc4c3F)n2)n[nH]1` [Example 96], 110%.
Regarding `C/C=C/c1cc(Nc2cc(N3CCC(OC)CC3)nc(Oc3ccc4[nH]c(C)cc4c3F)n2)n[nH]1` [Example 58], the “% Inhibition @1 μM Abl” value is 112%.
Turning to `Cc1cc2c(F)c(Oc3nc(Nc4cc(C5CC5)[nH]n4)cc(N4CCN(CCF)CC4)n3)ccc2[nH]1` [Example 45], the “% Inhibition @1 μM Abl” value came to 107%.
As for `C/C=C/c1cc(Nc2cc(N3CCC(OC)C3)nc(Oc3ccc4[nH]c(C)cc4c3F)n2)n[nH]1` (stereo not shown) [Example 60], the figure is 111%; as for `Cc1cc2c(F)c(Oc3nc(Nc4cc(C5CC5)[nH]n4)cc(N4CCN(CC(F)(F)F)CC4)n3)ccc2[nH]1` [Example 38], 108%; as for `Cc1cc2c(F)c(Oc3nc(Nc4cc(C5CC5)[nH]n4)cc(N4CCOC(CN)C4)n3)ccc2[nH]1` (stereo not shown) [Example 39], 110%.
For `Cc1cc2c(F)c(Oc3nc(Nc4cc(C5CC5)[nH]n4)cc(N4CCC(F)CC4)n3)ccc2[nH]1` [Example 22] the value was 108%.
For `C/C=C/c1cc(Nc2cc(N3CCC(OC)C3)nc(Oc3cc(F)c4[nH]c(C)cc4c3F)n2)n[nH]1` (stereo not shown) [Example 93] the value was 111%.
For `Cc1cc2c(F)c(Oc3nc(Nc4cc(C5CC5)[nH]n4)cc(N4C[C@@H](C)N[C@@H](C)C4)n3)ccc2[nH]1` [Example 20], the “% Inhibition @1 μM Abl” value came out at 107%.
As for `C/C=C/c1cc(Nc2cc(N3CCN(S(C)(=O)=O)CC3)nc(Oc3cc(F)c4[nH]c(C)cc4c3F)n2)n[nH]1` [Example 98], the figure is 111%.
In the case of `Cc1cc(Nc2cc(N3CCOCC3)nc(Oc3cc(F)c4[nH]c(C)cc4c3F)n2)n[nH]1` [Example 107], the “% Inhibition @1 μM Abl” value turned out to be 111%.
As to `C/C=C/c1cc(Nc2cc(N3CCNCC3)nc(Oc3cc(F)c4[nH]c(C)cc4c3F)n2)n[nH]1` [Example 90], the “% Inhibition @1 μM Abl” value is listed as 112%.
For `Cc1cc2c(F)c(Oc3nc(Nc4cc(C5CC5)[nH]n4)cc(N4CCN(C)CC4)n3)cc(F)c2[nH]1` [Example 81] the value was 110%.
In the case of `C/C=C/c1cc(Nc2cc(N3CCC(O)C3)nc(Oc3ccc4[nH]c(C)cc4c3F)n2)n[nH]1` (stereo not shown) [Example 61], the “% Inhibition @1 μM Abl” value came out at 112%.
As to `C/C=C/c1cc(Nc2cc(N3CCC(O)CC3)nc(Oc3cc(F)c4[nH]c(C)cc4c3F)n2)n[nH]1` [Example 95], the “% Inhibition @1 μM Abl” value is 110%.
`Cc1cc2c(F)c(Oc3nc(Nc4cc(C5CC5)[nH]n4)cc(N4CCOC(CN(C)C)C4)n3)ccc2[nH]1` (stereo not shown) [Example 30]: the “% Inhibition @1 μM Abl” value came out at 110%.
On to `C/C=C/c1cc(Nc2cc(N3CCN(C)CC3)nc(Oc3ccc4[nH]c(C)cc4c3Cl)n2)n[nH]1` [Example 112], for which the “% Inhibition @1 μM Abl” value is recorded as 113%.
For `Cc1cc2c(F)c(Oc3nc(Nc4cc(C5CC5)[nH]n4)cc(N4CCN(c5ccncc5)CC4)n3)ccc2[nH]1` [Example 27], the “% Inhibition @1 μM Abl” value stood at 108%.
Turning to `Cc1cc2c(F)c(Oc3nc(Nc4cc(C5CC5)[nH]n4)cc(N4CCNCC4)n3)cc(F)c2[nH]1` [Example 82], the “% Inhibition @1 μM Abl” value is listed as 106%.
With `C/C=C/c1cc(Nc2cc(N3CCOCC3)nc(Oc3cc(F)c4[nH]c(C)cc4c3F)n2)n[nH]1` [Example 89], the “% Inhibition @1 μM Abl” value was 112%.
For `C/C=C/c1cc(Nc2cc(N3CCN(S(C)(=O)=O)CC3)nc(Oc3ccc4[nH]c(C)cc4c3F)n2)n[nH]1` [Example 55] the value was 110%; for `Cc1cc2c(F)c(Oc3nc(Nc4cc(C5CC5)[nH]n4)cc(N4CCNC(=O)C4)n3)ccc2[nH]1` [Example 19], 108%.
As for `Cc1cc2c(F)c(Oc3nc(Nc4cc(C5CC5)[nH]n4)cc(N4CCN(CCO)CC4)n3)ccc2[nH]1` [Example 12], the figure is 112%; as for `Cc1cc2c(F)c(Oc3nc(Nc4cc(C5CC5)[nH]n4)cc(N4CCN(CCO)CC4)n3)cc(F)c2[nH]1` [Example 83], 110%; as for `CCN1CCN(c2cc(Nc3cc(C4CC4)[nH]n3)nc(Oc3ccc4[nH]c(C)cc4c3F)n2)CC1` [Example 31], 115%.
With `Cc1cc2c(F)c(Oc3nc(Nc4cc(C5CC5)[nH]n4)cc(N4CCN(c5cccnc5)CC4)n3)ccc2[nH]1` [Example 26], the “% Inhibition @1 μM Abl” value was 109%.
Turning to `C/C=C/c1cc(Nc2cc(N3CCN(CCO)CC3)nc(Oc3cc(F)c4[nH]c(C)cc4c3F)n2)n[nH]1` [Example 88], the “% Inhibition @1 μM Abl” value stood at 113%.
As for `Cc1cc2c(F)c(Oc3nc(Nc4cc(C5CC5)[nH]n4)cc(N4CCOCC4)n3)ccc2n1C` [Example 123], the “% Inhibition @1 μM Abl” value worked out at 114%.
As to `C/C=C/c1cc(Nc2cc(N3CCN(CC)CC3)nc(Oc3cc(F)c4[nH]c(C)cc4c3F)n2)n[nH]1` [Example 99], the “% Inhibition @1 μM Abl” value is given as 113%.
Turning to `Cc1cc(Nc2cc(N3CCNCC3)nc(Oc3cc(F)c4[nH]c(C)cc4c3F)n2)n[nH]1` [Example 106], the “% Inhibition @1 μM Abl” value was 109%.
As for `C/C=C/c1cc(Nc2cc(N3CCN(CCF)CC3)nc(Oc3ccc4[nH]c(C)cc4c3F)n2)n[nH]1` [Example 74], the “% Inhibition @1 μM Abl” value worked out at 111%.
As to `COC1CCN(c2cc(Nc3cc(C4CC4)[nH]n3)nc(Oc3ccc4[nH]c(C)cc4c3F)n2)C1` (stereo not shown) [Example 16], the “% Inhibition @1 μM Abl” value is reported as 103%.
For `C/C=C/c1cc(Nc2cc(N3CCN(CCOC)CC3)nc(Oc3ccc4[nH]c(C)cc4c3F)n2)n[nH]1` [Example 54] the value was 108%.
Regarding `C/C=C/c1cc(Nc2cc(N3CCOCC3)nc(Oc3ccc4[nH]c(C)cc4c3F)n2)n[nH]1` [Example 67], the “% Inhibition @1 μM Abl” value is listed as 112%.
Take `C/C=C/c1cc(Nc2cc(N3CCC(N(CC)CC)C3)nc(Oc3ccc4[nH]c(C)cc4c3F)n2)n[nH]1` (stereo not shown) [Example 62]: the “% Inhibition @1 μM Abl” value is reported as 111%.
As for `C/C=C/c1cc(Nc2cc(N3CCC(O)CC3)nc(Oc3ccc4[nH]c(C)cc4c3F)n2)n[nH]1` [Example 59], the figure is 112%; as for `C/C=C/c1cc(Nc2cc(N3CCN(C)CC3)nc(Oc3ccc4c(cc(C)n4C)c3F)n2)n[nH]1` [Example 120], 115%.
For `Cc1cc2c(F)c(Oc3nc(Nc4cc(C5CC5)[nH]n4)cc(N4CCN(c5ccccn5)CC4)n3)ccc2[nH]1` [Example 25], the “% Inhibition @1 μM Abl” value amounted to 108%.
With `COCCN1CCN(c2cc(Nc3cc(C4CC4)[nH]n3)nc(Oc3ccc4[nH]c(C)cc4c3F)n2)CC1` [Example 28], the “% Inhibition @1 μM Abl” value came out at 108%.
Take `Cc1cc2c(F)c(Oc3nc(Nc4cc(C5CC5)[nH]n4)cc(N4CCN(C)CC4)n3)ccc2[nH]1` [Example 10]: the “% Inhibition @1 μM Abl” value amounted to 112%.
For `CC(=O)N1CCN(c2cc(Nc3cc(C4CC4)[nH]n3)nc(Oc3ccc4[nH]c(C)cc4c3F)n2)CC1` [Example 18], the “% Inhibition @1 μM Abl” value was 107%.
With `C/C=C/c1cc(Nc2cc(N3CCS(=O)(=O)CC3)nc(Oc3ccc4[nH]c(C)cc4c3F)n2)n[nH]1` [Example 57], the “% Inhibition @1 μM Abl” value was determined as 111%.
On to `C/C=C/c1cc(Nc2cc(N3CCC(O)C3)nc(Oc3cc(F)c4[nH]c(C)cc4c3F)n2)n[nH]1` (stereo not shown) [Example 92], for which the “% Inhibition @1 μM Abl” value was 111%.
As for `Cc1cc2c(F)c(Oc3nc(Nc4cc(C5CC5)[nH]n4)cc(N4CCNCC4)n3)ccc2[nH]1` [Example 11, N-(5-cyclopropyl-1H-pyrazol-3-yl)-2-((4-fluoro-2-methyl-1H-indol-5-yl)oxy)-6-(piperazin-1-yl)pyrimidin-4-amine], the figure is 111%; as for `C/C=C/c1cc(Nc2cc(N3CCOCC3)nc(Oc3ccc4c(cc(C)n4C)c3F)n2)n[nH]1` [Example 121], 116%.
For `Cc1cc2c(F)c(Oc3nc(Nc4cc(C5CC5)[nH]n4)cc(N4CCOCC4)n3)cc(F)c2[nH]1` [Example 84] the value was 103%.
As for `C/C=C/c1cc(Nc2cc(N3CCNCC3)nc(Oc3ccc4[nH]c(C)cc4c3F)n2)n[nH]1` [Example 68], the “% Inhibition @1 μM Abl” value turned out to be 107%.
On to `C/C=C/c1cc(Nc2cc(N3CCC(N(CC)CC)C3)nc(Oc3cc(F)c4[nH]c(C)cc4c3F)n2)n[nH]1` (stereo not shown) [Example 94], for which the “% Inhibition @1 μM Abl” value amounted to 111%.
As for `Cc1cc2c(F)c(Oc3nc(Nc4cc(C5CC5)[nH]n4)cc(N4CCC(N(C)C)C4)n3)ccc2[nH]1` (stereo not shown) [Example 17], the “% Inhibition @1 μM Abl” value was found to be 108%.
Regarding `Cc1cc2c(F)c(Oc3nc(Nc4cc(C5CC5)[nH]n4)cc(N4CC(O)C4)n3)ccc2[nH]1` [Example 15], the “% Inhibition @1 μM Abl” value is recorded as 108%.
Regarding `C/C=C/c1cc(Nc2cc(N3CCN(C(C)=O)CC3)nc(Oc3ccc4[nH]c(C)cc4c3F)n2)n[nH]1` [Example 56], the “% Inhibition @1 μM Abl” value was found to be 111%.
`C/C=C/c1cc(Nc2cc(N3CCN(C)CC3)nc(Oc3cc(F)c4[nH]c(C)cc4c3F)n2)n[nH]1` [Example 87]: the “% Inhibition @1 μM Abl” value stood at 112%.
For the compound `Cc1cc2c(F)c(Oc3nc(Nc4cc(C5CC5)[nH]n4)cc(N4CCNC(CO)C4)n3)ccc2[nH]1` (stereo not shown) [Example 43], the “% Inhibition @1 μM Abl” value is on record as 111%.
Turning to `CCC1CN(c2cc(Nc3cc(C4CC4)[nH]n3)nc(Oc3ccc4[nH]c(C)cc4c3F)n2)CCN1` (stereo not shown) [Example 41], the “% Inhibition @1 μM Abl” value is on record as 108%.
`Cc1cc2c(F)c(Oc3nc(Nc4cc(C5CC5)[nH]n4)cc(N4CCN(C)CC4)n3)ccc2n1C` [Example 122]: the “% Inhibition @1 μM Abl” value turned out to be 109%.
As for `COCC1CCN(c2cc(Nc3cc(C4CC4)[nH]n3)nc(Oc3ccc4[nH]c(C)cc4c3F)n2)C1` (stereo not shown) [Example 44], the figure is 94%.
Take `CCN1CCN(c2cc(Nc3cc(C)[nH]n3)nc(Oc3cc(F)c4[nH]c(C)cc4c3F)n2)CC1` [Example 103]: the “% Inhibition @1 μM Abl” value came out at 113%.
For `Cc1cc(Nc2cc(N3CCN(CCO)CC3)nc(Oc3cc(F)c4[nH]c(C)cc4c3F)n2)n[nH]1` [Example 105] the value was 112%.
